Test results: patent US20250025443A1, “COMPOUNDS AND METHODS FOR TREATING CORONA VIRUSES” (CLEAR CREEK BIO, INC., priority 2021, published 2025)

Target: SARS-CoV-2 Papain-Like Protease (PLpro) (Severe acute respiratory syndrome coronavirus 2 (2019-nCoV) (SARS-CoV-2), UniProt P0DTD1)
Assay: biochemical
Conditions: SARS-CoV-2 PLpro enzymatic fluorescence assay; read-out: PLpro IC50

SMILES	IC50 [µM]
C#Cc1ccc(OCCN(C)C)cc1C(=O)NC1(c2cccc3ccccc23)CC1 [Compound 337, 5-(2-(Dimethylamino)ethoxy)-2-ethynyl-N-(1-(naphthalen-1-yl)cyclopropyl)benzamide]	> 5
Cc1ccc(OCCN(C)C)cc1C(=O)NC1(c2cccc(C3=CCCCC3)c2)CC1 [Compound 338, 5-(2-(Dimethylamino)ethoxy)-2-methyl-N-(1-(2′,3′,4′,5′-tetrahydro-[1,1′-biphenyl]-3-yl)cyclopropyl)benzamide]	1 to 5
Cc1ccc(OCCN(C)C)cc1C(=O)NC1(c2cccc(-c3ccccc3)c2C)CC1 [Compound 340, 5-(2-(Dimethylamino)ethoxy)-2-methyl-N-(1-(2-methyl-[1,1′-biphenyl]-3-yl)cyclopropyl)benzamide]	0.1 to 1
Cc1ccc(OCC(N)C(C)(C)C)cc1C(=O)NC1(c2cccc3ccccc23)CC1 (stereo not shown) [Compound 343, 5-(2-Amino-3,3-dimethylbutoxy)-2-methyl-N-(1-(naphthalen-1-yl)cyclopropyl)benzamide]	< 0.1
Cc1ccc(OCCN(C)C)cc1C(=O)NC1(c2ccccc2C(C)C)CC1 [Compound 344, 5-(2-(Dimethylamino)ethoxy)-N-(1-(2-isopropylphenyl)cyclopropyl)-2-methylbenzamide]	0.1 to 1
Cc1ccc(OCCN(C)C)cc1C(=O)NC1(c2cc(O)cc3ccccc23)CC1 [Compound 345, 5-(2-(Dimethylamino)ethoxy)-N-(1-(3-hydroxynaphthalen-1-yl)cyclopropyl)-2-methylbenzamide]	< 0.1
Cc1ccc(OCCN(C)C)cc1C(=O)NC1(c2csc3ccccc23)CC1 [Compound 346, N-(1-(Benzo[b]thiophen-3-yl)cyclopropyl)-5-(2-(dimethylamino)ethoxy)-2-methylbenzamide]	0.1 to 1
CNCCOc1ccc(C)c(C(=O)NC2(c3cc(OC)cc4ccccc34)CC2)c1 [Compound 347, N-(1-(3-Methoxynaphthalen-1-yl)cyclopropyl)-2-methyl-5-(2-(methylamino)ethoxy)benzamide]	< 0.1
COCCN1CCC1COc1ccc(C)c(C(=O)NC2(c3cccc4ccccc34)CC2)c1 (stereo not shown) [Compound 348, 5-((1-(2-Methoxyethyl)azetidin-2-yl)methoxy)-2-methyl-N-(1-(naphthalen-1-yl)cyclopropyl)benzamide]	< 0.1
CNCCOc1ccc(C)c(C(=O)N[C@@H](c2cccc3ccccc23)C(F)(F)F)c1 [Compound 349, (S)-2-Methyl-5-(2-(methylamino)ethoxy)-N-(2,2,2-trifluoro-1-(naphthalen-1-yl)ethyl)benzamide]	0.1 to 1
Cc1cnc(OCCN(C)C)nc1C(=O)NC1(c2cccc3ccccc23)CC1 [Compound 350, 2-(2-(Dimethylamino)ethoxy)-5-methyl-N-(1-(naphthalen-1-yl)cyclopropyl)pyrimidine-4-carboxamide]	1 to 5
CCNCCOc1ccc(C)c(C(=O)NC2(c3cccc4ccccc34)CC2)c1 [Compound 351, 5-(2-(Ethylamino)ethoxy)-2-methyl-N-(1-(naphthalen-1-yl)cyclopropyl)benzamide]	< 0.1
Cc1ccc(OCC(C)(C)N)cc1C(=O)NC1(c2cccc3ccccc23)CC1 [Compound 352, 5-(2-Amino-2-methylpropoxy)-2-methyl-N-(1-(naphthalen-1-yl)cyclopropyl)benzamide]	< 0.1
CN(C)CCOc1ccc(C2CC2)c(C(=O)NC2(c3cccc4ccccc34)CC2)c1 [Compound 353, 2-Cyclopropyl-5-(2-(dimethylamino)ethoxy)-N-(1-(naphthalen-1-yl)cyclopropyl)benzamide]	> 5
Cc1ccc(OCCN(C)C)cc1C(=O)NC1(c2cn(C)c3ccccc23)CC1 [Compound 354, 5-(2-(Dimethylamino)ethoxy)-2-methyl-N-(1-(1-methyl-1H-indol-3-yl)cyclopropyl)benzamide]	0.1 to 1
Cc1ccc(OCCN(C)C)cc1C(=O)NC1(c2cccc(-c3cccs3)c2)CC1 [Compound 355, 5-(2-(Dimethylamino)ethoxy)-2-methyl-N-(1-(3-(thiophen-2-yl)phenyl)cyclopropyl)benzamide]	0.1 to 1
Cc1ccc(OCCN(C)C)cc1C(=O)NC1(c2cccc3sccc23)CC1 [Compound 356, N-(1-(Benzo[b]thiophen-4-yl)cyclopropyl)-5-(2-(dimethylamino)ethoxy)-2-methylbenzamide]	< 0.1
Cc1ccc(OCCN(C)C)cc1C(=O)NC1(c2cccc3occc23)CC1 [Compound 357, N-(1-(Benzofuran-4-yl)cyclopropyl)-5-(2-(dimethylamino)ethoxy)-2-methylbenzamide]	0.1 to 1
COCCNCCOc1ccc(C)c(C(=O)NC2(c3cccc4ccccc34)CC2)c1 [Compound 358, 5-(2-((2-Methoxyethyl)amino)ethoxy)-2-methyl-N-(1-(naphthalen-1-yl)cyclopropyl)benzamide]	< 0.1
Cc1ccc(OCCNCCO)cc1C(=O)NC1(c2cccc3ccccc23)CC1 [Compound 359, 5-(2-((2-Hydroxyethyl)amino)ethoxy)-2-methyl-N-(1-(naphthalen-1-yl)cyclopropyl)benzamide]	< 0.1

SMILES	IC50 [µM]
Cc1ccc(OCCNCc2ccccc2)cc1C(=O)NC1(c2cccc3ccccc23)CC1 [Compound 360, 5-(2-(Benzylamino)ethoxy)-2-methyl-N-(1-(naphthalen-1-yl)cyclopropyl)benzamide]	< 0.1
Cc1ccc(OCCNCC2CC2)cc1C(=O)NC1(c2cccc3ccccc23)CC1 [Compound 361, 5-(2-((Cyclopropylmethyl)amino)ethoxy)-2-methyl-N-(1-(naphthalen-1-yl)cyclopropyl)benzamide]	< 0.1
Cc1ccc(OCCNC(C)C)cc1C(=O)NC1(c2cccc3ccccc23)CC1 [Compound 362, 5-(2-(Isopropylamino)ethoxy)-2-methyl-N-(1-(naphthalen-1-yl)cyclopropyl)benzamide]	< 0.1
COc1cc(C2(NC(=O)c3cc(OCCN)ccc3C)CC2)c2ccccc2c1 [Compound 363, 5-(2-Aminoethoxy)-N-(1-(3-methoxynaphthalen-1-yl)cyclopropyl)-2-methylbenzamide]	< 0.1
CCc1ccccc1C1(NC(=O)c2cc(OCCN(C)C)ccc2C)CC1 [Compound 364, 5-(2-(Dimethylamino)ethoxy)-N-(1-(2-ethylphenyl)cyclopropyl)-2-methylbenzamide]	0.1 to 1
Cc1ccc(OCCN(C)C)cc1C(=O)NC1(c2cccc3ccc(F)cc23)CC1 [Compound 365, 5-(2-(Dimethylamino)ethoxy)-N-(1-(7-fluoronaphthalen-1-yl)cyclopropyl)-2-methylbenzamide]	< 0.1
Cc1cnc(OCCN(C)C)cc1C(=O)NC1(c2cccc3ccccc23)CC1 [Compound 366, 2-(2-(Dimethylamino)ethoxy)-5-methyl-N-(1-(naphthalen-1-yl)cyclopropyl) isonicotinamide]	0.1 to 1
Cc1ccc(OCC(N)c2ccccc2)cc1C(=O)NC1(c2cccc3ccccc23)CC1 (stereo not shown) [Compound 367, 5-(2-Amino-2-phenylethoxy)-2-methyl-N-(1-(naphthalen-1-yl)cyclopropyl)benzamide]	< 0.1
Cc1ccc(OCCN(C)C)cc1C(=O)NC1(c2cccc3ccsc23)CC1 [Compound 368, N-(1-(Benzo[b]thiophen-7-yl)cyclopropyl)-5-(2-(dimethylamino)ethoxy)-2-methylbenzamide]	0.1 to 1
Cc1cc(Br)c(OCCN(C)C)cc1C(=O)NC1(c2cccc3ccccc23)CC1 [Compound 369, 4-Bromo-5-(2-(dimethylamino)ethoxy)-2-methyl-N-(1-(naphthalen-1-yl)cyclopropyl)benzamide]	< 0.1
Cc1ccc(OCCN(C)C)cc1C(=O)NC1(c2cccc3ccoc23)CC1 [Compound 370, N-(1-(Benzofuran-7-yl)cyclopropyl)-5-(2-(dimethylamino)ethoxy)-2-methylbenzamide]	0.1 to 1
Cc1ccc(OC[C@H]2CCCN2)cc1C(=O)NC1(c2cccc3ncccc23)CC1 [Compound 371, (R)-2-methyl-5-(pyrrolidin-2-ylmethoxy)-N-(1-(quinolin-5-yl)cyclopropyl)benzamide]	< 0.1
COC(=O)/C=C/C(=O)NNC(=O)CCc1ccccc1C(=O)NC1(c2cccc3ccccc23)CC1 [Compound 373, (E)-Methyl 4-(2-(3-(2-((1-(naphthalen-1-yl)cyclopropyl)carbamoyl)phenyl)propanoyl) hydrazinyl)-4-oxobut-2-enoate]	< 0.1
Cc1ccc(OCCN)cc1C(=O)NC1(c2cccc3ncccc23)CC1 [Compound 374, 5-(2-Aminoethoxy)-2-methyl-N-(1-(quinolin-5-yl)cyclopropyl)benzamide]	< 0.1
CNCCOc1ccc(C)c(C(=O)NC2(c3cccc4cnccc34)CC2)c1 [Compound 375, N-(1-(Isoquinolin-5-yl)cyclopropyl)-2-methyl-5-(2-(methylamino)ethoxy)benzamide]	< 0.1
Cc1ccc(OCC23CCCN2CCC3)cc1C(=O)NC1(c2cccc3ccccc23)CC1 [Compound 376, 5-((Hexahydro-1H-pyrrolizin-7a-yl)methoxy)-2-methyl-N-(1-(naphthalen-1-yl)cyclopropyl)benzamide]	< 0.1
CNCCOc1ccc(C)c(C(=O)NC2(c3cccc4cc(F)ccc34)CC2)c1 [Compound 377, N-(1-(6-Fluoronaphthalen-1-yl)cyclopropyl)-2-methyl-5-(2-(methylamino)ethoxy)benzamide]	< 0.1
Cc1ccc(CCN)cc1C(=O)NC1(c2cccc3ccccc23)CC1 [Compound 378, 5-(2-Aminoethyl)-2-methyl-N-(1-(naphthalen-1-yl)cyclopropyl)benzamide]	< 0.1
Cc1ccc(OC[C@@H]2CCCN2C)cc1C(=O)NC1(c2cccc3ncccc23)CC1 [Compound 379, (S)-2-Methyl-5-((1-methylpyrrolidin-2-yl)methoxy)-N-(1-(quinolin-5-yl)cyclopropyl)benzamide]	< 0.1
Cc1ccc(OC[C@@H]2CCCN2)cc1C(=O)NC1(c2cccc3ncccc23)CC1 [Compound 380, (S)-2-Methyl-5-(pyrrolidin-2-ylmethoxy)-N-(1-(quinolin-5-yl)cyclopropyl)benzamide]	< 0.1
